Reference: patent USRE47193E1, “Selectively substituted quinoline compounds” (EISAI R&D MANAGEMENT CO., LTD., priority 2013, dated 2019)

Assays:
Human TLR4 = molecular target: T1, Human TLR4 (Homo sapiens, UniProt O00206); experiment: HEK-293 human TLR4 NF-kappaB luciferase reporter assay (LPS); assay type: cell-based; conditions: ligand LPS, analyte NFkB-luciferase
T1 construct: stably and individually express human TLR4, TLR7 or TLR9 full-length ORF cDNAs; expressed in transfected cells; host or cells: HEK-293 (ATCC) with ELAM-1 NF-kappaB luciferase reporter
Method: (§1) To identify potent and selective TLR7/8 compounds, analogs were initially screened across a cell-based panel of human TLR4, TLR7, and TLR9 reporter lines (see Pharmacology Materials and Methods for more details). […] Certain compounds were advanced into the short-term in vivo (STIV) assay to determine dose-dependent activity and duration-of-action against mouse TLR7 (see Pharmacology Materials and Methods for more details). Select compounds were then evaluated for impact in one or more of the following mouse lupus disease models: BXSB-Yaa, NZBx-NZW, and Pristane DBA/1.
(§2) HEK-293 cells (ATCC) were engineered to stably express a NF-kappaB transcription factor inducible E-selectin (ELAM-1) luciferase reporter derived from the plasmid pGL3 (Promega) containing base pairs −2241 bp to −254 bp from the promoter of the human E-selectin gene (Accession No. NM_000450). These cells were then subsequently engineered to stably and individually express human TLR4, TLR7 or TLR9 full-length ORF cDNAs. Human TLR4 cDNA (Accession No. NM_138554) was cloned into pcDNA 3.0 expression vector (Invitrogen). TLR4 transfected cells were also engineered to express human MD-2 co-receptor [MD-2 cDNA (Accession No. NM_015364) was cloned into the pEF-BOS vector] and were supplemented with 10 nM soluble CD14 (R&D Systems) in the media to optimize LPS responsiveness. […]

TLR9 = molecular target: T2, TLR9 (Homo sapiens, UniProt Q9NR96); experiment: HEK-293 human TLR9 NF-kappaB luciferase reporter assay (CpG-ODN); assay type: cell-based; set-up: stably and individually express human TLR4, TLR7 or TLR9 full-length ORF cDNAs; expressed in transfected cells; host or cells: HEK-293 (ATCC) with ELAM-1 NF-kappaB luciferase reporter; conditions: ligand CpG-ODN, analyte NFkB-luciferase
T2 sequence (Q9NR96 26-1032): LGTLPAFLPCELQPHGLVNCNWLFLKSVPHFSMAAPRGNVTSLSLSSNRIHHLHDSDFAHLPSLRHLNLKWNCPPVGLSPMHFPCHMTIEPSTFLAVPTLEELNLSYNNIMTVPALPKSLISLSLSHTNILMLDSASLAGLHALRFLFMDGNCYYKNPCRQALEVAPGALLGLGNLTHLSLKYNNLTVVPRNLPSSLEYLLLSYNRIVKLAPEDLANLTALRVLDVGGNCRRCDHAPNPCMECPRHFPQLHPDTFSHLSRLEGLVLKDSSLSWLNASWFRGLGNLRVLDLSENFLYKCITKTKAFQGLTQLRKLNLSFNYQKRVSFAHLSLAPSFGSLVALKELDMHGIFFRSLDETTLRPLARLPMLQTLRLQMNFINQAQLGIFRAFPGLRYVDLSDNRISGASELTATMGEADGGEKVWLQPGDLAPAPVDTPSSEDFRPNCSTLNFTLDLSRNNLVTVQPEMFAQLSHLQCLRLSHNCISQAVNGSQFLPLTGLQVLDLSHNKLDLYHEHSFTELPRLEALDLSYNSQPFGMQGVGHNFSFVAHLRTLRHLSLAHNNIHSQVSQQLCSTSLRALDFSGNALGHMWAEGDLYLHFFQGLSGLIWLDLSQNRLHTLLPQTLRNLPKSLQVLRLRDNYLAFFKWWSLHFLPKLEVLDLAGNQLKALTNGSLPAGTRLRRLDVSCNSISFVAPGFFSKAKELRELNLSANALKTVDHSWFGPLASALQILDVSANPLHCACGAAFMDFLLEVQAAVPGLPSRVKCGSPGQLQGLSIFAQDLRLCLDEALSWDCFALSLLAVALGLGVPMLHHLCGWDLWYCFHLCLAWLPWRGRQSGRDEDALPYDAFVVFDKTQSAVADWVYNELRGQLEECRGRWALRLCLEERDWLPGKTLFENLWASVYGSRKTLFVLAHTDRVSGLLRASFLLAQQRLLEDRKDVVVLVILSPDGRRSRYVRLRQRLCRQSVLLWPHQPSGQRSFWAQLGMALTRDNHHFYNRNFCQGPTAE
Method: as §1, §2

T1 sequence (O00206 24-839): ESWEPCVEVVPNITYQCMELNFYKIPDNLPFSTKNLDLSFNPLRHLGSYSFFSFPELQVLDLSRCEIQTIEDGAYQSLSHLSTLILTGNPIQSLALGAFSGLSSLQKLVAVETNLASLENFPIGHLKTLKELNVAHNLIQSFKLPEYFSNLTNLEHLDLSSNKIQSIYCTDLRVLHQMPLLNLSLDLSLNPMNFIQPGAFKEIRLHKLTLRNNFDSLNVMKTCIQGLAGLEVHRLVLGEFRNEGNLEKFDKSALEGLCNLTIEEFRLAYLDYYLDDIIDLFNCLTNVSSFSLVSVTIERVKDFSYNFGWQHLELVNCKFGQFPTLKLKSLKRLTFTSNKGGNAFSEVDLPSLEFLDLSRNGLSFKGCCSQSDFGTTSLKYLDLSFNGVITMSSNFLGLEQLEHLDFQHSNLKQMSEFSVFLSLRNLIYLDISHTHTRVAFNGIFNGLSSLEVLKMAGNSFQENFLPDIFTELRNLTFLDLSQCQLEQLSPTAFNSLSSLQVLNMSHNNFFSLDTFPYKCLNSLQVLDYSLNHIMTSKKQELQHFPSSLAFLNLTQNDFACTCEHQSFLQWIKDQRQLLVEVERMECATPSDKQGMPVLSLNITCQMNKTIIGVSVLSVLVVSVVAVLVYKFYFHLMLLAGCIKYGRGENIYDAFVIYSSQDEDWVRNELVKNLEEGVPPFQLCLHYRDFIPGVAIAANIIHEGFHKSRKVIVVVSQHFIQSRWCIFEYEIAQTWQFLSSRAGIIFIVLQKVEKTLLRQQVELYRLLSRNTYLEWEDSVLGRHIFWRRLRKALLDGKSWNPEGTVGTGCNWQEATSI
T1 sequence (Q9Y6Y9 19-160 partner): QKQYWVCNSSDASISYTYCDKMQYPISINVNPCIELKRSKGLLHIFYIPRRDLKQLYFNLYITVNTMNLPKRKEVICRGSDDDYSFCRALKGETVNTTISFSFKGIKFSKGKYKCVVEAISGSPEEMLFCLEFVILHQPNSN

In the case of `C[C@@H]1CN(c2ccc(C#N)c3ncccc23)C[C@H](C(=O)N[C@H]2CNC[C@H]2F)O1.Cl` [ER-899742, (2R,6R)-4-(8-cyanoquinolin-5-yl)-N-[(3S,4R)-4-fluoropyrrolidin-3-yl]-6-methylmorpholine-2-carboxamide hydrochloride], the IC50 (Human TLR4) is reported as over 10 µM and the IC50 (TLR9) is reported as over 10 µM.
